Several values for one entry are separate records, joined by “and”; a condition that tells them apart may be missing. Equal values may be shown once. Toxic doses and inconclusive results are not listed. The calls were made as follows: active = survival T/C of 150% or more; inactive = T/C below 125% in these data.
System: P388 leukemia ip, CD2F1 mice, survival T/C
Assay: NCI In Vivo Anticancer Drug Screen. Data for tumor model P388 Leukemia (intraperitoneal) in CD2F1 (CDF1) mice
Details: endpoint: median survival time, higher = longer survival
Procedure, shortened: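 Mice carrying the transplanted tumor received test compound or vehicle. Survival was recorded in each group, and the value is the treated-group measurement divided by that of the vehicle-treated control group.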

[1] = dose: 100.0 mg/kg/injection, schedule: Q04DX003 (ip), vehicle: saline with Tween-80
[2] = dose: 200.0 mg/kg/injection, schedule: Q04DX003 (ip), vehicle: saline with Tween-80
[3] = dose: 50.0 mg/kg/injection, schedule: Q01DX005 (ip), vehicle: Klucel (hydroxypropylcellulose) (HPC)
[4] = dose: 100.0 mg/kg/injection, schedule: Q01DX005 (ip), vehicle: Klucel (hydroxypropylcellulose) (HPC)
[5] = dose: 50.0 mg/kg/injection, schedule: Q01DX009 (ip), vehicle: saline
[6] = dose: 100.0 mg/kg/injection, schedule: Q01DX009 (ip), vehicle: saline
[7] = dose: 200.0 mg/kg/injection, schedule: Q01DX009 (ip), vehicle: saline
[8] = dose: 400.0 mg/kg/injection, schedule: Q01DX009 (ip), vehicle: saline
[9] = dose: 60.0 mg/kg/injection, schedule: Q01DX005 (ip), vehicle: Klucel (hydroxypropylcellulose) (HPC)
[10] = dose: 120.0 mg/kg/injection, schedule: Q01DX005 (ip), vehicle: Klucel (hydroxypropylcellulose) (HPC)
[11] = dose: 240.0 mg/kg/injection, schedule: Q01DX005 (ip), vehicle: Klucel (hydroxypropylcellulose) (HPC)
[12] = dose: 50.0 mg/kg/injection, schedule: Q01DX005 (ip), vehicle: saline with Tween-80
[13] = dose: 100.0 mg/kg/injection, schedule: Q01DX005 (ip), vehicle: saline with Tween-80
[14] = dose: 50.0 mg/kg/injection, schedule: Q01DX009 (ip), vehicle: Klucel (hydroxypropylcellulose) (HPC)
[15] = dose: 50.0 mg/kg/injection, schedule: Q01DX009 (ip), vehicle: saline with Tween-80
[16] = dose: 100.0 mg/kg/injection, schedule: Q01DX009 (ip), vehicle: saline with Tween-80
[17] = dose: 60.0 mg/kg/injection, schedule: Q01DX005 (ip), vehicle: saline with Tween-80

Measured: T/C

NC(=O)N/N=C/c1cccs1
inactive: dose: 3.12 mg/kg/injection, schedule: Q01DX009 (ip), vehicle: saline with Tween-80 97 % of control | dose: 6.25 mg/kg/injection, schedule: Q01DX009 (ip), vehicle: saline with Tween-80 97 % of control | dose: 12.5 mg/kg/injection, schedule: Q01DX009 (ip), vehicle: saline with Tween-80 93 % of control

Cc1c(C)c2ccc(OCCCN3CCN(Cc4ccc(Cl)cc4)CC3)cc2oc1=O
inactive: dose: 50.0 mg/kg/injection, schedule: Q01DX009 (ip), vehicle: suspension in saline 88 % of control | dose: 100.0 mg/kg/injection, schedule: Q01DX009 (ip), vehicle: suspension in saline 91 % of control

COC(=O)C1C(C)(C)N=[N+]([O-])C1(C)C (configuration not stated)
inactive: dose: 12.5 mg/kg/injection, schedule: Q01DX009 (ip), vehicle: water 102 % of control | dose: 25.0 mg/kg/injection, schedule: Q01DX009 (ip), vehicle: water 107 % of control | dose: 50.0 mg/kg/injection, schedule: Q01DX009 (ip), vehicle: water 99 % of control | dose: 100.0 mg/kg/injection, schedule: Q01DX009 (ip), vehicle: water 97 % of control | dose: 200.0 mg/kg/injection, schedule: Q01DX009 (ip), vehicle: water 99 % of control

CC1(C)CN=C(C2=C(O)c3ccccc3C2=O)C1
inactive: [1] 91 % of control | [2] 93 % of control | dose: 400.0 mg/kg/injection, schedule: Q04DX003 (ip), vehicle: saline with Tween-80 90 % of control

C[Si](C)(CC[Si](C)(C)OS(C)(=O)=O)OS(C)(=O)=O
inactive: [3] 101 % of control | [4] 99 % of control | dose: 200.0 mg/kg/injection, schedule: Q01DX005 (ip), vehicle: Klucel (hydroxypropylcellulose) (HPC) 89 % of control

OCCc1ccccn1
inactive: [5] 102 % of control | [6] 111 % of control | [7] 102 % of control | [8] 102 % of control

NC1CCNC(O)[N-]1.NC1CCNC(O)[N-]1.[Br][Pd][Br] (configuration not stated)
inactive: [9] 99 % of control | [10] 100 % of control | [11] 102 % of control

OCCN1CCC2(CC1)SSC1(CCN(CCO)CC1)S2
inactive: dose: 50.0 mg/kg/injection, schedule: Q04DX003 (ip), vehicle: saline 100 % of control | dose: 100.0 mg/kg/injection, schedule: Q04DX003 (ip), vehicle: saline 100 % of control | dose: 200.0 mg/kg/injection, schedule: Q04DX003 (ip), vehicle: saline 100 % of control

NC(CCS)C(=O)O (configuration not stated)
inactive: [12] 90 % of control | [13] 92 % of control

Cc1ccc(S(=O)(=O)c2ccc(Sc3cccc[n+]3[O-])c3nonc23)cc1
inactive: dose: 6.25 mg/kg/injection, schedule: Q01DX009 (ip), vehicle: saline 103 % of control | dose: 12.5 mg/kg/injection, schedule: Q01DX009 (ip), vehicle: saline 116 % of control | dose: 12.5 mg/kg/injection, schedule: Q01DX009 (ip), vehicle: suspension in saline 110 % of control | dose: 25.0 mg/kg/injection, schedule: Q01DX009 (ip), vehicle: saline 100 % of control | dose: 25.0 mg/kg/injection, schedule: Q01DX009 (ip), vehicle: suspension in saline 121 % of control | [5] 103 % of control

CCO/C([O-])=C(\C=N\S(=O)(=O)c1ccc(C)cc1)[n+]1ccccc1
inactive: [14] 104 % of control | dose: 100.0 mg/kg/injection, schedule: Q01DX009 (ip), vehicle: Klucel (hydroxypropylcellulose) (HPC) 105 % of control | dose: 200.0 mg/kg/injection, schedule: Q01DX009 (ip), vehicle: Klucel (hydroxypropylcellulose) (HPC) 108 % of control

Cc1cc(C)c([N+](=O)[O-])c([N+](=O)[O-])c1C
inactive: [15] 101 % of control | [16] 106 % of control | dose: 200.0 mg/kg/injection, schedule: Q01DX009 (ip), vehicle: saline with Tween-80 102 % of control

COC(=O)C(C)(O)C(C)C1CO1 (configuration not stated)
inactive: dose: 50.0 mg/kg/injection, schedule: Q01DX005 (ip), vehicle: saline 98 % of control | dose: 100.0 mg/kg/injection, schedule: Q01DX005 (ip), vehicle: saline 101 % of control | dose: 200.0 mg/kg/injection, schedule: Q01DX005 (ip), vehicle: saline 121 % of control

O=c1oc2ccccc2c(O)c1C1=N/C(=N/N=C/c2ccc(Cl)cc2)SC1
inactive: dose: 15.0 mg/kg/injection, schedule: Q01DX005 (ip), vehicle: Klucel (hydroxypropylcellulose) (HPC) 98 % of control | dose: 30.0 mg/kg/injection, schedule: Q01DX005 (ip), vehicle: Klucel (hydroxypropylcellulose) (HPC) 100 % of control | [9] 101 % of control and 87 % of control | dose: 60.0 mg/kg/injection, schedule: Q02DX002 (ip), vehicle: Klucel (hydroxypropylcellulose) (HPC) 97 % of control | dose: 120.0 mg/kg/injection, schedule: Q02DX002 (ip), vehicle: Klucel (hydroxypropylcellulose) (HPC) 89 % of control | dose: 240.0 mg/kg/injection, schedule: Q02DX002 (ip), vehicle: Klucel (hydroxypropylcellulose) (HPC) 93 % of control

CC1C2C=CC1C(c1c3ccc(=O)c(O)c-3oc3c(O)c(O)ccc13)C2C(=O)O (configuration not stated)
inactive: [17] 94 % of control | dose: 120.0 mg/kg/injection, schedule: Q01DX005 (ip), vehicle: saline with Tween-80 87 % of control | dose: 240.0 mg/kg/injection, schedule: Q01DX005 (ip), vehicle: saline with Tween-80 91 % of control

Cc1c2c(c(C)c3ccccc13)C(O)C(O)c1ccccc1-2 (configuration not stated)
inactive: dose: 100.0 mg/kg/injection, schedule: Q01DX001 (ip), vehicle: Klucel (hydroxypropylcellulose) (HPC) 91 % of control | dose: 200.0 mg/kg/injection, schedule: Q01DX001 (ip), vehicle: Klucel (hydroxypropylcellulose) (HPC) 91 % of control | dose: 400.0 mg/kg/injection, schedule: Q01DX001 (ip), vehicle: Klucel (hydroxypropylcellulose) (HPC) 99 % of control

COc1ccc(C(=O)Oc2ccc[nH]c2=O)cc1
inactive: [5] 102 % of control and 107 % of control | [6] 99 % of control and 102 % of control | [7] 98 % of control and 102 % of control | [8] 104 % of control and 93 % of control

O=C(Nc1ccccc1O)/C(Cl)=C/Cl
inactive: dose: 33.0 mg/kg/injection, schedule: Q01DX009 (ip), vehicle: saline with Tween-80 120 % of control | dose: 75.0 mg/kg/injection, schedule: Q01DX009 (ip), vehicle: saline with Tween-80 115 % of control | [1] 105 % of control | [2] 120 % of control

O=P1(c2ccccc2)Cc2ccccc2N1Cc1ccccc1 (configuration not stated)
inactive: [12] 100 % of control | [13] 103 % of control | dose: 200.0 mg/kg/injection, schedule: Q01DX005 (ip), vehicle: saline with Tween-80 104 % of control

CN=C(NC)c1cccc(NC(=O)/C=C\c2ccc(/C=C/C(=O)Nc3cccc(C(=NC)NC)c3)cc2)c1
inactive: dose: 1.56 mg/kg/injection, schedule: Q01DX005 (ip), vehicle: saline with Tween-80 121 % of control

Nc1n[nH]c(-c2ccccc2)n1
inactive: [15] 117 % of control | [16] 101 % of control

N=C(N)c1ccc(N=Nc2cc(/C=C/c3ccccc3)ccc2O)cc1
inactive: [3] 110 % of control | [4] 92 % of control

NC(=S)N/N=C1/C(=O)N(c2ccc(Cl)cc2)C(=O)C1C(=O)Nc1ccc(Cl)cc1 (configuration not stated)
inactive: dose: 15.0 mg/kg/injection, schedule: Q01DX005 (ip), vehicle: saline with Tween-80 97 % of control | dose: 30.0 mg/kg/injection, schedule: Q01DX005 (ip), vehicle: saline with Tween-80 94 % of control | [17] 93 % of control and 94 % of control

CC1(C)C2(C(N)=O)C(=O)NC(=O)C12C(=O)O (configuration not stated)
inactive: dose: 25.0 mg/kg/injection, schedule: Q04DX002 (ip), vehicle: saline with Tween-80 95 % of control | dose: 50.0 mg/kg/injection, schedule: Q04DX002 (ip), vehicle: saline with Tween-80 104 % of control | dose: 100.0 mg/kg/injection, schedule: Q04DX002 (ip), vehicle: saline with Tween-80 103 % of control

CN(C(=S)S(=O)(=O)C12CC3CC(CC(C3)C1)C2)c1ccccc1
inactive: dose: 12.5 mg/kg/injection, schedule: Q01DX009 (ip), vehicle: Klucel (hydroxypropylcellulose) (HPC) 118 % of control | [14] 124 % of control

CNc1nc(N)nc(N)c1N1CCN(c2ccc(C(=O)O)cc2)CC1
inactive: [9] 91 % of control | [10] 93 % of control | [11] 87 % of control

— PubChem BioAssay AID330 (DTP/NCI, 2004)
